# Test results: patent US10662156B2, “Guanidine derivative and medical use thereof” (Toray Industries, Inc., priority 2016, dated 2020)
# Where a name gives a salt, the structure may show the parent alone.
# Target: recombinant GST fusion MALT1 (human MALT1) (Homo sapiens (Human), UniProt Q9UDY8)
# Test: Evaluation of inhibition of protease activity of MALT1 (cleavage of fluorescent peptide substrate Ac-LRSR-AMC)
# Format: biochemical
# Conditions: substrate Ac-LRSR-AMC 20 μmol/L, 30° C. for 80 minutes
# Experimental: The guanidine derivative (I) or the pharmacologically acceptable salt thereof was evaluated for its inhibition of the protease activity of MALT1 in an in vitro experimental system in accordance with the method described in the literature (Cancer Cell, 2012, Vol. 22, p. 825-837). Specifically, the evaluation was conducted by measuring the degree of reduction in fluorescence value by the compound relative to elevation in fluorescence value resulting from the cleavage of a fluorescently labeled artificial peptide substrate by recombinant MALT1.
# A) Preparation of Recombinant GST Fusion MALT1:
# Full-length cDNA of human MALT1 gene (GenBank accession No: AB026118.1) amplified by PCR was inserted in flame to a SalI site located downstream of GST gene in a pGEX6P3 vector (GE Healthcare Japan Corp.) to prepare a vector (hereinafter, referred to as a pGEX6P3-MALT1 vector). Subsequently, E. coli for protein expression (BL21-RIL-codon plus-DE3, Agilent Technologies, Inc.) was transformed with the pGEX6P3-MALT1 vector and then analyzed by ampicillin resistance screening and colony PCR to obtain an E. coli strain expressing recombinant GST fusion MALT1. Protein expression was induced with isopropyl-(3-thiogalactopyranoside. After the expression induction, E. coli precipitates were recovered by centrifugation from the E. coli culture solution, and the E. coli precipitates were homogenized and then centrifuged to obtain a supernatant. The supernatant was purified using GSTrap FF column (GE Healthcare Japan Corp.) to obtain recombinant GST fusion MALT1.
# B) Evaluation of Inhibition of Protease Activity of MALT1:
# To 89 μL of an enzyme solution ([…] GST fusion MALT1, 50 mmol/L MES, 150 mmol/L NaCl, 10% sucrose, 0.1% CHAPS, 10 mmol/L dithiothreitol, and 1 mol/L tri-ammonium citrate) per specimen, 1 μL of a test compound (DMSO-diluted solution) of each concentration was added to prepare a mixed solution. The mixed solution was incubated at room temperature for 30 minutes, followed by the measurement of the fluorescence value of the mixed solution (fluorescence value of the first measurement) (Ex: 380 nm, Em: 460 nm; Envision (Perkin Elmer Inc.)). Next, 10 μL of 200 μmol/L substrate (Ac-LRSR-AMC, SM Biochemicals LLC) was added (final concentration: 20 μmol/L) to the mixed solution, and the mixture was reacted by incubation at 30° C. for 80 minutes, followed by the measurement of the fluorescence value of the reaction solution (fluorescence value of the second measurement) (Ex: 380 nm, Em: 460 nm; Envision (Perkin Elmer Inc.)). A “well nonsupplemented with the test compound (only DMSO was added), nonsupplemented with the enzyme and supplemented with the substrate”, and a “well nonsupplemented with the test compound (only DMSO was added), supplemented with the enzyme and supplemented with the substrate” were established.
# The fluorescence value of the first measurement was defined as “F1”, and the fluorescence value of the second measurement was defined as “F2”. F2−F1 of the “well nonsupplemented with the test compound (only DMSO was added), nonsupplemented with the enzyme and supplemented with the substrate” was defined as “Fback”, F2−F1 of the “well nonsupplemented with the test compound (only DMSO was added), supplemented with the enzyme and supplemented with the substrate” was defined as “Fpositive”, and F2−F1 of the “well supplemented with the test compound, supplemented with the enzyme and supplemented with the substrate” was defined as “Fsample”. The rate of inhibition (%) of the protease activity of MALT1 by the test compound was calculated according to the following expression. Rate of inhibition (%)=100×(1−(Fsample−Fback)/(Fpositive−Fback))
# Sequence of recombinant GST fusion MALT1 (human MALT1) (Q9UDY8 whole entry, the tested form may be a part): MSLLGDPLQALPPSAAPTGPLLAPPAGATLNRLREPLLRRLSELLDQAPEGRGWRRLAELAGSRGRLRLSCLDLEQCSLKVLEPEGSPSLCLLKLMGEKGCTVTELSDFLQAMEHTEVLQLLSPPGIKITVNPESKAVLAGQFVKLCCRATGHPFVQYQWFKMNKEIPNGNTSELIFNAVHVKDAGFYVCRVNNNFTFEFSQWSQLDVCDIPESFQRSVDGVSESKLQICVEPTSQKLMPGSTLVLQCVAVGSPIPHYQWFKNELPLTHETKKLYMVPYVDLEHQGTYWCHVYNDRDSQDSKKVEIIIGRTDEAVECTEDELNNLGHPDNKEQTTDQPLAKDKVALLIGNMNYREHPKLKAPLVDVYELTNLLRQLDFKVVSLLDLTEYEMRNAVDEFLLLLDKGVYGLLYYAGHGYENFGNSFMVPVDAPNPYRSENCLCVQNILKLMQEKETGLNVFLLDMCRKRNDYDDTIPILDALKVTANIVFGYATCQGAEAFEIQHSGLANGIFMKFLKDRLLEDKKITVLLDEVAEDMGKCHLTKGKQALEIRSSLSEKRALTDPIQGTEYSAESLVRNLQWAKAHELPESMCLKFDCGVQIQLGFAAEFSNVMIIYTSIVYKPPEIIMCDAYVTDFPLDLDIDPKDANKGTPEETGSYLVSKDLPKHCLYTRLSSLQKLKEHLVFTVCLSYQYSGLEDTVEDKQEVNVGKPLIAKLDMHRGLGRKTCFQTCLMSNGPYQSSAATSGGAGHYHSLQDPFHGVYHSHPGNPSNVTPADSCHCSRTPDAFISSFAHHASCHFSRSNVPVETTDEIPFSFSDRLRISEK
row,IC50 [nM],Structure (SMILES)
1,1030,"N/C(=N\S(=O)(=O)c1ccccc1)NCc1cnc(-c2ccc(O)cc2)c(-c2ccc(Cl)cc2)c1 [Compound of Example 95, N-(amino(((5-(4-chlorophenyl)-6-(4-hydroxyphenyl)pyridin-3-yl)methyl)amino)methylene)benzenesulfonamide Hydrochloride]"
2,373,"N/C(=N\C(=O)C1CCC(F)(F)CC1)NCc1cnc(-c2ccc(Cl)cc2)c(-c2ccc(Cl)cc2)c1 [Compound of Example 85, N-(amino(((5,6-bis(4-chlorophenyl)pyridin-3-yl)methyl)amino)methylene)-4,4-difluorocyclohexanecarboxamide]"
3,746,"N/C(=N\S(=O)(=O)Cc1ccccc1)NCc1cnc(-c2ccc(Cl)cc2)c(-c2ccc(Cl)cc2)c1 [Compound of Example 59, N-(amino(((5,6-bis(4-chlorophenyl)pyridin-3-yl)methyl)amino)methylene)-1-phenylmethanesulfonamide]"
4,341,"N/C(=N\C(=O)C1CCCC1)NCc1cnc(-c2ccc(Cl)cc2)c(-c2ccc(Cl)cc2)c1 [Compound of Example 70, N-(amino(((5,6-bis(4-chlorophenyl)pyridin-3-yl)methyl)amino)methylene)cyclopentanecarboxamide]"
5,1380,"N/C(=N\C(=O)CC(F)(F)F)NCc1cnc(-c2ccc(Cl)cc2)c(-c2ccc(Cl)cc2)c1 [Compound of Example 84, N-(amino(((5,6-bis(4-chlorophenyl)pyridin-3-yl)methyl)amino)methylene)-3,3,3-trifluoropropanamide]"
6,754,"N/C(=N\C(=O)c1ccco1)NCc1cnc(-c2ccc(Cl)cc2)c(-c2ccc(Cl)cc2)c1 [Compound of Example 78, N-(amino(((5,6-bis(4-chlorophenyl)pyridin-3-yl)methyl)amino)methylene)furan-2-carboxamide]"
7,922,"N/C(=N\S(=O)(=O)c1ccccc1)NCc1cnc(-c2ccc(Cl)cc2O)c(-c2ccc(Cl)cc2)c1 [Compound of Example 97, N-(amino(((6-(4-chloro-2-hydroxyphenyl)-5-(4-chlorophenyl)pyridin-3-yl)methyl)amino)methylene)benzenesulfonamide]"
8,471,"N#Cc1ccc(C(=O)/N=C(\N)NCc2cnc(-c3ccc(Cl)cc3)c(-c3ccc(Cl)cc3)c2)cc1 [Compound of Example 62, N-(amino(((5,6-bis(4-chlorophenyl)pyridin-3-yl)methyl)amino)methylene)-4-cyanobenzamide]"
9,1320,"CN(C)S(=O)(=O)/N=C(\N)NCc1cnc(-c2ccc(Cl)cc2)c(-c2ccc(Cl)cc2)c1 [Compound of Example 60, ((2-amino-2-(((5,6-bis(4-chlorophenyl)pyridin-3-yl)methyl)amino)-1-azavinyl)sulfonyl)dimethylamine]"
10,368,"N/C(=N\S(=O)(=O)c1ccccc1)NCc1cc(-c2ccc(Cl)cc2)c(-c2ccc(Cl)cc2)nc1F [Compound of Example 89, N-(amino(((5,6-bis(4-chlorophenyl)-2-fluoropyridin-3-yl)methyl)amino)methylene)benzenesulfonamide]"
11,1130,"N/C(=N\C(=O)c1ccc(F)cc1)NCc1cnc(-c2ccc(Cl)cc2)c(-c2ccc(Cl)cc2)c1 [Compound of Example 66, N-(amino(((5,6-bis(4-chlorophenyl)pyridin-3-yl)methyl)amino)methylene)-4-fluorobenzamide]"

# More lines, now with the values behind:
row,Structure (SMILES),IC50 [nM]
1,"Cc1ccc(-c2ncc(CN/C(N)=N/S(=O)(=O)c3ccccc3)cc2-c2ccc(Cl)cc2)cc1F [Compound of Example 12, N-(amino(((5-(4-chlorophenyl)-6-(3-fluoro-4-methylphenyl)pyridin-3-yl)methyl)amino)methylene)benzenesulfonamide]",338
2,"N/C(=N\S(=O)(=O)c1ccoc1)NCc1cnc(-c2ccc(Cl)cc2)c(-c2ccc(Cl)cc2)c1 [Compound of Example 32, N-(amino(((5,6-bis(4-chlorophenyl)pyridin-3-yl)methyl)amino)methylene)furan-3-sulfonamide]",156
3,"NC(=O)/N=C(\N)NCc1cnc(-c2ccc(Cl)cc2)c(-c2ccc(Cl)cc2)c1 [Compound of Example 41, 1-(amino(((5,6-bis(4-chlorophenyl)pyridin-3-yl)methyl)amino)methylene)urea Hydrochloride]",679
4,"O=S(=O)(/N=C(\NO)NCc1cnc(-c2ccc(Cl)cc2)c(-c2ccc(Cl)cc2)c1)c1ccccc1 [Compound of Example 39, N-((((5,6-bis(4-chlorophenyl)pyridin-3-yl)methyl)amino)(hydroxyamino)methylene)benzenesulfonamide]",106
5,"Cn1cc(S(=O)(=O)/N=C(\N)NCc2cnc(-c3ccc(Cl)cc3)c(-c3ccc(Cl)cc3)c2)cn1 [Compound of Example 53, N-(amino(((5,6-bis(4-chlorophenyl)pyridin-3-yl)methyl)amino)methylene)-1-methyl-1H-pyrazole-4-sulfonamide]",2010
6,"N/C(=N\S(=O)(=O)c1ccccc1)NCc1cnc(-c2ccc(Cl)cc2)c(-c2ccccc2)c1 [Compound of Example 14, N-(amino(((6-(4-chlorophenyl)-5-phenylpyridin-3-yl)methyl)amino)methylene)benzenesulfonamide]",692
7,"Cc1ccc(-c2ncc(CN/C(N)=N/S(=O)(=O)c3ccccc3)cc2-c2ccc(C(F)(F)F)cc2)cc1 [Compound of Example 25, N-(amino(((6-(4-methylphenyl)-5-(4-(trifluoromethyl)phenyl)pyridin-3-yl)methyl)amino)methylene)benzenesulfonamide hydrochloride]",1840
8,"N/C(=N\S(=O)(=O)c1cccc(Cl)c1)NCc1cnc(-c2ccc(Cl)cc2)c(-c2ccc(Cl)cc2)c1 [Compound of Example 48, N-(amino(((5,6-bis(4-chlorophenyl)pyridin-3-yl)methyl)amino)methylene)-3-chlorobenzenesulfonamide]",333
9,"N/C(=N\S(=O)(=O)c1ccccc1)NCc1cnc(-c2ccc(Cl)cc2)c(-c2ccc(C(F)(F)F)cc2)c1 [Compound of Example 21, N-(Amino(((6-(4-chlorophenyl)-5-(4-(trifluoromethyl)phenyl)pyridin-3-yl)methyl)amino)methylene)benzenesulfonamide]",1040
10,"N/C(=N\S(=O)(=O)c1ccccc1)NCc1cnc(-c2ccc(Cl)cc2F)c(-c2ccc(Cl)cc2)c1 [Compound of Example 36, N-(amino(((6-(4-chloro-2-fluorophenyl)-5-(4-chlorophenyl)pyridin-3-yl)methyl)amino)methylene)benzenesulfonamide]",237
11,"Cc1ccc(-c2ncc(CN/C(N)=N/S(=O)(=O)c3ccccc3)cc2-c2ccc(Cl)cc2)c(F)c1 [Compound of Example 13, N-(amino(((5-(4-chlorophenyl)-6-(2-fluoro-4-methylphenyl)pyridin-3-yl)methyl)amino)methylene)benzenesulfonamide]",237
12,"N#Cc1ccc(-c2ncc(CN/C(N)=N/S(=O)(=O)c3ccccc3)cc2-c2ccc(Cl)cc2)cc1 [Compound of Example 7, N-(amino(((5-(4-chlorophenyl)-6-(4-cyanophenyl)pyridin-3-yl)methyl)amino)methylene)benzenesulfonamide]",192
